Measurements published in patent US6872730B2, “Substituted benzofurans and benzothiophenes, methods of making and methods of use as integrin antagonists” (3-Dimensional Pharmaceuticals, Inc., priority 2001, dated 2005).

molecular target: T1, human αvβ3 (Homo sapiens, UniProt P05106+P06756); experiment: αvβ3-vitronectin assay; format: binding; details: ELISA plate coated with human αvβ3, biotinylated human vitronectin, room temperature; read-out: IC50 for inhibition of the αvβ3-vitronectin interaction
T1 construct: purchased Chemicon CC1019
T1 sequence (P06756 31-889 limits assumed): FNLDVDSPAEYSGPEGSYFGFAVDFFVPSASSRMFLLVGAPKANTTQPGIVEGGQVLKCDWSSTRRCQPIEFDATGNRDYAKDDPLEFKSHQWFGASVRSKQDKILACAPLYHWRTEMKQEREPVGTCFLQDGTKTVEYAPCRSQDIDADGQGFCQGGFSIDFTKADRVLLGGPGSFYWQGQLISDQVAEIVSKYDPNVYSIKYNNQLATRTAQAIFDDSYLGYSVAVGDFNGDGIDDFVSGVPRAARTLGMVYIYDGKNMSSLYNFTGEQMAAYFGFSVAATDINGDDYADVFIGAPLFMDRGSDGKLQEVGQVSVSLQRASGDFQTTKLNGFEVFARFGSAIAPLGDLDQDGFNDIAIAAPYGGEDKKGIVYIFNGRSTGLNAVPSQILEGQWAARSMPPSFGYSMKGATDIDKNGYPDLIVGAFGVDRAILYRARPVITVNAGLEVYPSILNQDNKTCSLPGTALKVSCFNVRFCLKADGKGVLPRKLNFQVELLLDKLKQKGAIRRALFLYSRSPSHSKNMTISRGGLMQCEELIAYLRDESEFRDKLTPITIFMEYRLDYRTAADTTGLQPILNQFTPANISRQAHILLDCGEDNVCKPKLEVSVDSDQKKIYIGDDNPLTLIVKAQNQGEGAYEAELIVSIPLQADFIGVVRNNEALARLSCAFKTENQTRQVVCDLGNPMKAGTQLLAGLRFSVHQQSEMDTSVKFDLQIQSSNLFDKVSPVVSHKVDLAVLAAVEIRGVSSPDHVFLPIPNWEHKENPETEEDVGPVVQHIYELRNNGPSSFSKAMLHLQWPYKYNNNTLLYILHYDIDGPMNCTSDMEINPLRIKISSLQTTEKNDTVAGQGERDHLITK
T1 sequence (P06756 891-1048 partner limits assumed): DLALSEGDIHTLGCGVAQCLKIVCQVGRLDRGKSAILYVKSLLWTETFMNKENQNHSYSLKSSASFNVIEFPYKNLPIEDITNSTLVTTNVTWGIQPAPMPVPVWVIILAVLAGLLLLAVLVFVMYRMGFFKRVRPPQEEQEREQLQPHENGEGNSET
T1 sequence (P05106 27-788): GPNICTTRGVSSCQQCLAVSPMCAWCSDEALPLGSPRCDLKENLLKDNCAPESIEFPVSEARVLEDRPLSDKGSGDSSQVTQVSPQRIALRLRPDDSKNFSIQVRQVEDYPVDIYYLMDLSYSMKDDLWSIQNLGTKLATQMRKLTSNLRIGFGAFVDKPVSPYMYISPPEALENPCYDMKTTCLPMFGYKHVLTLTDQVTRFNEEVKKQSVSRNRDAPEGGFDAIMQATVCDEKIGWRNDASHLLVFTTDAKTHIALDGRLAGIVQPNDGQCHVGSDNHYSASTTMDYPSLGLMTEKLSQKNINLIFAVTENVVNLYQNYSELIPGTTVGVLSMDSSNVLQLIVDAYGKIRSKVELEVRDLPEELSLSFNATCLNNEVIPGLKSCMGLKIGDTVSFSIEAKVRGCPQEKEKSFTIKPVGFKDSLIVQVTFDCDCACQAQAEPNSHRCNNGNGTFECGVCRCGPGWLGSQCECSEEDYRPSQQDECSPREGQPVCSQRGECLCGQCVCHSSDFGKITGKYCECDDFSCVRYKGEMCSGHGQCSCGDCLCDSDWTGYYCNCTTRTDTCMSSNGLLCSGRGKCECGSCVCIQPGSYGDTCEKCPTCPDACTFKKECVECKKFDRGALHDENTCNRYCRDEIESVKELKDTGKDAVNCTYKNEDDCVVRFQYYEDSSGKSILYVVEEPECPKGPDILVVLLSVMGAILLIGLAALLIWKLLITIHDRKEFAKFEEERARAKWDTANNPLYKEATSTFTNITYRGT
Description: The assay is based on the method of Dennis (Dennis, M. S., et al., Proteins 15: 312-321 (1993)). Costar 9018 flat-bottom 96-well ELISA plates were coated overnight at 4° C. with 100 μL/well of 10 μg/mL human fibrinogen (Calbiochem 341578) in 20 mM Tris-HCl pH 7.5, 150 mM NaCl, 2 mM CaCl2, 0.02% NaN3 (TAC buffer), and blocked for 1 hr at 37° C. with 150 μL/well of TAC buffer containing 0.05% Tween 20 and 1% bovine serum albumin (TACTB buffer). After washing 3 times with 200 μL/well of 10 mM Na2 HPO4 pH 7.5, 150 mM NaCl, 0.01% Tween 20 (PBST buffer), controls or test compound (0.027-20.0 μM) were mixed with 40 μg/mL human GPIIbIIIa (Enzyme Research Laboratories) in TACTB buffer, and 100 μL/well of these solutions were incubated for 1 hr at 37° C. The plate was then washed 5 times with PBST buffer, and 100 μL/well of a monoclonal anti-GPIIbIIIa antibody in TACTB buffer (1 μg/mL, Enzyme Research Laboratories MabGP2b3a) was incubated at 37° C. for 1 hr. After washing (5 times with PBST buffer), 100 μL /well of goat anti-mouse IgG conjugated to horseradish peroxidase (Kirkegaard & Perry 14-23-06) was incubated at 37° C. for 1 hr (25 ng/mL in PBST buffer), followed by a 6-fold PBST buffer wash. The plate was developed by adding 100 μL/well of 0.67 mg o-phenylenediamine dihydrochloride per mL of 0.012% H2O2, 22 mM sodium citrate, 50 mM sodium phosphate, pH 5.0 at room temperature. The reaction was stopped with 50 μL/well of 2M H2SO4, and the absorbence at 492 nm was recorded. Percent (%) inhibition was calculated from the average of three separate determinations relative to buffer controls (no test compound added), and a four parameter fit (Marquardt, D. W., J. Soc. Indust. Appl. Math. 11:431-441 (1963)) was used to estimate the half maximal inhibition concentration (IC50).
The assay was based on the method of Niiya (Niiya, K., et al., Blood 70:475-483 (1987)). […] Following a 5-fold PBST buffer wash, the plate was developed and results were calculated as described for the fibrinogen-IIbIIIa assay.

IC50 [nM]	SMILES
8	O=C(O)CCc1csc2cc(OCCc3ccc4c(n3)NCCC4)ccc12 [Example 2, 3-{6-[2-(5,6,7,8-Tetrahydro-[1,8]naphthyridin-2-yl)-ethoxy]-benzo[b]thiophen-3-yl}-propionic acid]
33	CNc1cccc(CCOc2ccc3c(CCC(=O)O)coc3c2)n1 [Example 3, 3-(6-{2-[6-(Methylamino)-2-pyridyl]ethoxy}benzo[b]furan-3-yl)propanoic acid]
30	CNc1cccc(CCOc2ccc3c(CCC(=O)O)csc3c2)n1 [Example 1, 3-(6-{2-[6-(methylamino)-2-pyridyl]ethoxy}benzo [b]thiophen-3-yl)propanoic acid]
